Test results taken from patent publication US20210401768A1, “FORMULATIONS OF CANNABINOIDS FOR THE TREATMENT OF DERMATITIS AND INFLAMMATORY SKIN DISEASES” (Botanix Pharmaceuticals Ltd., priority 2017, published 2021).

Legend:
[1] = Discoloration of CBD solutions and formulations on standing; type: physicochemical; details: end of day
Description: The CBD2 material dissolved like the CBD1 therefore the CBD2 is CBD without the discoloration properties of CBD1.

[2] = in ethanol, reported value; cited from earlier work
anandamide = details: rat basophilic leukemia cells; cited from earlier work
[3] = tested on: cardiac inflammation produced by doxorubicin; details: 5 mg/kg i.v. once daily for 4 weeks, rats; cited from earlier work
[4] = molecular target: T1, human vanilloid receptor type 1 (VR1) (Homo sapiens, UniProt Q8NER1); details: HEK-hVR1 transfected cells; cited from earlier work
T1 construct: expressed in transfected cells; host or cells: HEK cells transfected with hVR1 (HEK-hVR1)
T1 sequence (Q8NER1 whole entry): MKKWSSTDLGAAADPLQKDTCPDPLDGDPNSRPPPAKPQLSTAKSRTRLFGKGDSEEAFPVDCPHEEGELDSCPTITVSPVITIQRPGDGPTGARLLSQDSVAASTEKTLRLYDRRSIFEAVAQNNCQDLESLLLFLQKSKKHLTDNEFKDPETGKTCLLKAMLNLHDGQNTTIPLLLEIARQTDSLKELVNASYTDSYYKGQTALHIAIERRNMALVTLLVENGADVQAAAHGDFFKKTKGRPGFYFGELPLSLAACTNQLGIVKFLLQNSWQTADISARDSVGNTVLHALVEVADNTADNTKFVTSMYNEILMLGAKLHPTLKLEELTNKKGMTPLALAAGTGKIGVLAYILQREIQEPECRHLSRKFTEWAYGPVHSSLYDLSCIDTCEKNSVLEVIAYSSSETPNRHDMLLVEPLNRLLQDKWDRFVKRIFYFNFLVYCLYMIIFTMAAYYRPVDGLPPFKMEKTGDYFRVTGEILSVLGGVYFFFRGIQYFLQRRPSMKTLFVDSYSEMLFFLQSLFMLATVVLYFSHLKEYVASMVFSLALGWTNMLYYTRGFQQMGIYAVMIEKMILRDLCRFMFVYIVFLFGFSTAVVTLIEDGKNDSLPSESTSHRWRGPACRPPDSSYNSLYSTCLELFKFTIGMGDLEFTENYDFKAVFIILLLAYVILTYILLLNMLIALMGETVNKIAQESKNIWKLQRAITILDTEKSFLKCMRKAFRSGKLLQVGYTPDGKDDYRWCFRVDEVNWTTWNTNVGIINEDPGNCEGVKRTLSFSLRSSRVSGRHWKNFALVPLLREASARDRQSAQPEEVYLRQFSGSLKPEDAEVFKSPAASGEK

[5] = tested on: ovalbumin-induced airway obstruction; details: 1 mg/kg i.v., sensitized guinea-pigs; cited from earlier work
[6] = Solubility of CBD in solvents (weight to weight); type: physicochemical
Experimental: First, the solubility of cannabidiol (CBD) was assessed. The powder looked granulated under the microscope. […] The conclusions from the solubility studies were that OA and IPA were very good solvents and it was surprising that IPA was so much better than ethanol.
Solubility studies: CBD dissolved at the 10% level in AE and barely 9.5% in IPM. Further exploration was not conducted due to the small amount of drug API available for non-GMP work. CBD is soluble greater than 10% but probably not in excess of 20%, as the time to dissolve additional CBD was taking considerably longer.

[7] = Solubility of CBD in the Franz cell Receptor Fluid; type: physicochemical; details: aqueous with cosolvent or surfactant or cyclodextrin; PBS, 0.01 wt % NaN3, 4 wt % hydroxypropyl-β-cyclodextrin, 1 wt % Brij O20

## C=C(C)[C@@H]1CCC(C)=C[C@H]1c1c(O)cc(CCCCC)cc1O [CBD1]
[1]
  discoloration of solution: colored by the end of the day

## C=C(C)[C@@H]1CCC(C)=C[C@H]1c1c(O)cc(CCCCC)cc1O [CBD2]
[1]
  discoloration of solution: None of the CBD2 solutions were colored at the end of day 1

## C=C(C)C1CCC(C)=CC1c1c(O)cc(CCCCC)cc1O (stereo not drawn) [CBD, 2-[3-methyl-6-(1-methylethenyl)-2-cyclohexen-1-yl]-5-pentyl-1,3-benzenediol]
[2]
  reported solubility of CBD: 3.5%
anandamide
  inhibition of anandamide: inhibit anandamide
[3]
  effect on cardiac inflammation produced by doxorubicin: attenuated cardiac inflammation
[4]
  stimulation of VR1: maximum effect similar in efficacy to that of capsaicin
[5]
  effect on ovalbumin-induced airway obstruction: attenuated ovalbumin-induced airway obstruction
[6]; in ethanol
  solubility (weight to weight) of CBD: 6-7%
[6]; in hexamethyldisiloxane (HDS)
  solubility (weight to weight) of CBD: 3-4%
[6]; in isopropyl alcohol (IPA)
  solubility (weight to weight) of CBD: greater than 14%
[6]; in isopropyl myristate (IPM)
  solubility of CBD: ~9.5%
[6]; in mineral oil
  solubility (weight to weight) of CBD: 3-4%
[6]; in oleyl alcohol (OA), did not go higher in studies
  solubility (weight to weight) of CBD: greater than 8%
[6]; in propylene glycol (PG)
  solubility (weight to weight) of CBD: 6-7%
[7]
  solubility: > 50 µg/mL
